Measured values from patent US12485107B2, “Methods for the prevention or treatment of cytokine storm” (Beth Israel Deaconess Medical Center, Inc., priority 2019, dated 2025).

Test system: RAW264.7 murine macrophages
Test: Annexin V/PI cell death analysis of RAW264.7 macrophages
Format: cell-based
Conditions: 5 μM, 24 hours, vs vehicle
Experimental: Murine (ID8) or human (OVCAR5) ovarian tumor cells were treated with vehicle or a chemotherapeutic agent (e.g., cisplatin, carboplatin, or paclitaxel) as described. B/CMBA.Ov murine ovarian epithelial cells were treated with vehicle or PTUPB (1 or 5 μM) for 24 hours. The floating population (e.g., dead cells or “debris”) was collected, and the remaining adhered cells were trypsinized and combined with the dead cells. RAW264.7 murine macrophages were treated with vehicle or PTUPB (5 μM) for 24 hours. The floating population was collected and the remaining adhered cells were detached using a cell scraper (Corning Inc., Corning, NY) and combined with the dead cells. Cells were counted via hemocytometer, pelleted, and resuspended in PBS at 1×10^6 cells/mL. Next, 2×10^5 cells were stained with annexin V and propidium iodide (PI) according to FITC Annexin V/Dead Cell Apoptosis Kit protocol (Life Technologies, Carlsbad, CA). Staining was assessed using the BD LSR Fortessa (BD Biosciences, San Jose, CA) at the Dana-Farber Cancer Institute Jimmy Fund Flow Cytometry Core, and analyzed using FlowJo software (Tree Star Inc., Ashland, OR). Experiments were performed three times with similar results.

SMILES: NS(=O)(=O)c1ccc(-n2nc(CCCNC(=O)Nc3ccc(C(F)(F)F)cc3)cc2-c2ccccc2)cc1 [PTUPB, 4-(5-phenyl-3-{3-[3-(4-trifluoromethyl-phenyl)-ureido]propyl}-pyrazol-1-yl) benzenesulfonamide]
- induction of cell death of RAW264.7 macrophages: did not induce cell death
